Reference: BindingDB's records for doi:10.1021/jm100158v (University of California, 2010)

Experiment: Inhibition of Escherichia coli K12 ADCS by spectrophotometry

- Ki: 770 µM
Structure (SMILES): Cc1ccc(C(=O)N[C@@H](CCCCNC(=O)c2cccc(OCC(=O)O)c2)C(=O)N[C@@H](Cc2cccc(Cl)c2)C(N)=O)c([N+](=O)[O-])c1O [2-(3-((S)-6-((S)-1-amino-3-(3-chlorophenyl)-1-oxopropan-2-ylamino)-5-(3-hydroxy-4-methyl-2-nitrobenzamido)-6-oxohexylcarbamoyl)phenoxy)acetic acid]
